What was measured:
[1] = target: T1, recombinant human PARP7 protein (Homo sapiens, UniProt Q7Z3E1); experiment: Inhibition of PARP7 biological enzyme activity (histone-coated plate, Biotin-NAD+, chemiluminescence); format: biochemical; settings: recombinant human PARP7, Biotin-NAD+ substrate
T1 construct: purchased Abcam ab271651
T1 sequence (Q7Z3E1 1-657): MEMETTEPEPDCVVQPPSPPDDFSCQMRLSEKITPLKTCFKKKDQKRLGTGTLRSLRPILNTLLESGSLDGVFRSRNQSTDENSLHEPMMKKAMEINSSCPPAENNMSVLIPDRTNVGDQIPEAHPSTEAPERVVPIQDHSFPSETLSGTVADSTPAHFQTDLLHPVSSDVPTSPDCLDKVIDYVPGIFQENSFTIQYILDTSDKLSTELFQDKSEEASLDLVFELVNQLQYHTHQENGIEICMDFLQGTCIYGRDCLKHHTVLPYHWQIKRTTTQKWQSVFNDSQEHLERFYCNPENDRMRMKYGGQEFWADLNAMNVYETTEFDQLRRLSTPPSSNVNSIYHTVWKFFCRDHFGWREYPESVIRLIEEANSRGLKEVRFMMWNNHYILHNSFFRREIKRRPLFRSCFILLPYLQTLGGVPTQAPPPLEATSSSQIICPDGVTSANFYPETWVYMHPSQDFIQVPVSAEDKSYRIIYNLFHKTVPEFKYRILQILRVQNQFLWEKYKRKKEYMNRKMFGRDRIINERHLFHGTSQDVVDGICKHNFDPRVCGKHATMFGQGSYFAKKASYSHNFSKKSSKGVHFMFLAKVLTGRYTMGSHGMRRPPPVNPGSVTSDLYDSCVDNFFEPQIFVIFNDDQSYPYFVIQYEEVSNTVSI
Protocol: The recombinant human PARP7 protein kit (Abcam, catalog number ab271651) was used for the assay. According to the kit instructions, 30 μL of histone coating solution (1.5 μg/mL) was first applied to the 384 well holes of the reaction plate and coated at 4° C. for 2 hours. Then, the histone coated solution was washed off, and 50 μL sealing buffer was added to each well, and the sealing buffer was washed off after incubation at 25° C. for 60 minutes. 1000 times the concentration of the compound was 10 configured and diluted from 1 mM to 0.05 μM, and the configured compound was transferred to 384-well plates with 25 nL per well using Echo. The final concentration of the compound in the reaction system was 1000 nM, 333.33 nM, 111.11 nM, 37.03 nM, 12.34 nM, 4.11 nM, 1.37 nM, 0.45 nM, 0.15 nM, 0.05 nM, which was used as the test hole. At the same time, 25 nL DMSO was added to the negative control well and the positive control well. The PARP7 enzyme solution with a concentration of 1.67 times was prepared, and the PARP7 enzyme solution was added to the test hole and the positive control hole with 15 μL each, while the negative control hole was added with 15 μL base Buffer, and incubated at 25° C. for 15 minutes. Then 10 μL 2.5 times Biotin-NAD+ substrate solution was added and incubated at 25° C. for 60 min. After the reaction solution was washed off, the 384-well reaction plates were treated with closed buffer solution diluted with streptavidin-HRP (1:500), each well was 30 μL, and incubated at 25° C. for 30 min. After the HRP buffer was washed off, 30 μL HRP chemiluminescent substrate mixture was added to each well, and the luminescence signal (RLU) of each well was detected by Envision. Calculation formula: Inhibition rate %=(average positive control-RLU compound)/(average positive control-average negative control))*100%. The dose-response curves of each compound were fitted by GraphPad Prism 8 to get IC50 values. IC50 values less than 0.01 μM are labeled as “+++”, IC50 values from 0.01 to 0.1 µM are labeled as “++”, and IC50 values greater than 0.1 to 10.0 μM are labeled as “+”.

NCI-H1373 cancer cells = experiment: NCI-H1373 cancer cell growth inhibition (CellTiter-Glo, 144 hours); format: cell-based; settings: Homo sapiens, 144 hours culture
Protocol: Promega CellTiter-Glo cell activity assay kit (Item No.: Promege-G7573) was used to determine the cell activity. 90 μL NCI-H1373 cell suspension (ATCC, catalog No. CRL-5866, batch No. 58078716) was spread into the pores of the 96-well plate with 3500 cells per well. After 24 hours, the 10 μL prepared 10× compound working solution was added into the pores of the cell culture plate with a final concentration of 10 μM. 3.3333 μM, 1.1111 μM, 0.3704 μM, 0.1235 μM, 0.0412 μM, 0.0137 μM, 0.0046 μM, 0.0015 μM, 0.0005 μM, 10 μL DMSO was added to the solvent control, and the final concentration of DMSO was 0.2%. The 0-day plates were collected for analysis, and after 144 hours of culture, the growth condition of cells was detected according to the instructions of CellTiter-Glo cell activity assay kit. Add 50 μL of CellTiter-Glo working liquid into each hole of the cell culture plate, shake the plates in the dark for 2 minutes until cell lysis, and place at room temperature for 10 minutes to detect the luminous signal (RUL) of each cell hole on the 2104En Vision board reader.
Calculation formula: Growth inhibition rate %=(1−(RLU compound−RLU Day0)/(RLU solvent control−RLU Day0))*100%. The dose-response curves of each compound were fitted by GraphPad Prism 8 to obtain IC50 values.
For the matter, IC50 values less than 0.1 μM are labeled “+++”, values from 0.1 to 1 μM are labeled “++”, and values greater than 1 to 10 μM are labeled “+”.

[2] = Pharmacokinetic study in mice (IV and oral gavage); format: in vivo, CD-1 mice; settings: mouse, plasma, male CD-1 mice
Protocol: Formulation of intravenous and oral gavage administration solutions: The compounds to be tested were dissolved in solutions formulated with 5% DMSO, 10% solutol HS15, and 85% saline.
Dosage (measured as the amount of compound in the administration solution (mg)/mouse body weight (kg)): 3 mg/kg intravenously (IV), 10 mg/kg oral gavage (PO).
A total of 18 CD-1 mice (Shanghai Jihui Experimental Animal Feeding Co., LTD.), male, weight 28-31 g, were fasted for 12 hours and randomly divided into 2 groups (Group A and Group B) with 9 mice in each group. Animals in Group A were given the compound solution by oral gavage at the dose of 10 mg/kg. Animals in Group B were given the compound solution by tail vein injection at the dose of 3 mg/kg, and blank blood was taken before administration. About 110 μL of venous blood was taken from animals in Group A at 0.25 h, 0.5 h, 1 h, 2 h, 4 h, 8 h, and 24 h after administration. About 110 μL of venous blood was taken from animals in Group B at 0.083 h, 0.25 h, 0.5 h, 1 h, 2 h, 4 h, 8 h, and 24 h after administration, and all were placed in test tubes with heparin, centrifuged, and plasma was collected and stored at −70° C. for testing.
AUClast represents the area under the drug time curve from the beginning of the administration time to the last point, that is, the area surrounded by the blood drug concentration curve to the time axis. CL(iv) represents the drug clearance of intravenous administration; T1/2 represents the plasma half-life of the drug, which refers to the time required for half of the drug to be eliminated from the body. Cmax represents the maximum concentration of the drug in the plasma after administration. F % indicates oral bioavailability of the drug.

| IC50 [1] [nM] | IC50 (NCI-H1373 cancer cells) [nM] | SMILES | other results |
| --- | --- | --- | --- |
| < 10 | 100 to 1000 | CC1=C(CC(=O)NOC[C@H](C)Nc2cn[nH]c(=O)c2C(F)(F)F)CCN(c2ncc(-c3ccccc3F)cn2)C1 [Example 28, (S)-2-(1-(5-(2-fluorophenyl)pyrimidin-2-yl)-5-methyl-1,2,3,6-tetrahydropyridin-4-yl)-N-(2-((6-oxo-5-(trifluoromethyl)-1,6-dihydropyridazin-4-yl)amino)propoxy)acetamide] | – |
| < 10 | < 100 | C[C@@H](CONC(=O)C(F)C1CCN(c2ncc(C(F)(F)F)cn2)CC1)Nc1cn[nH]c(=O)c1C(F)(F)F (stereo partly shown) [Example 48] | – |
| < 10 | < 100 | C[C@@H](/C=N/OCC(=O)N1CCN(c2ncc(C(F)(F)F)cn2)CC1)Nc1cn[nH]c(=O)c1C(F)(F)F [Example 5, (S,E)-2-((6-oxo-5-(trifluoromethyl)-1,6-dihydropyridazin-4-yl)amino) propanal O-(2-oxo-2-(4-(5-(trifluoromethyl)pyrimidin-2-yl)piperazin-1-yl)ethyl) oxime] | – |
| < 10 | < 100 | C[C@@H](CONC(=O)CC1=CCN(c2ncc(-c3ccccc3F)cn2)CC1)Nc1cn[nH]c(=O)c1C(F)(F)F [Example 26, (S)-2-(1-(5-(2-fluorophenyl)pyrimidin-2-yl)-1,2,3,6-tetrahydropyridin-4-yl)-N-(2-((6-oxo-5-(trifluoromethyl)-1,6-dihydropyridazin-4-yl)amino)propoxy)acetamide] | – |
| < 10 | 100 to 1000 | O=C(CO/N=C1\CCC[C@@H]1Nc1cn[nH]c(=O)c1C(F)(F)F)N1CCN(c2ncc(C(F)(F)F)cn2)CC1 [Example 9, (S,E)-5-((2-((2-oxo-2-(4-(5-(trifluoromethyl)pyrimidin-2-yl)piperazin-1-yl)ethoxy)imino)cyclopentyl)amino)-4-(trifluoromethyl)pyridazin-3(2H)-one] | – |
| < 10 | 100 to 1000 | CC1CN(c2ncc(-c3ccccc3F)cn2)CC=C1CC(=O)NOC[C@H](C)Nc1cn[nH]c(=O)c1C(F)(F)F (stereo partly drawn) [Example 27, 2-(1-(5-(2-fluorophenyl)pyrimidin-2-yl)-3-methyl-1,2,3,6-tetrahydropyridin-4-yl)-N—((S)-2-((6-oxo-5-(trifluoromethyl)-1,6-dihydropyridazin-4-yl)amino)propoxy)acetamide] | – |
| < 10 | 100 to 1000 | C[C@@H](CONC(=O)/C=C1/CCN(c2ncc(C(F)(F)F)cn2)CC1F)Nc1cn[nH]c(=O)c1C(F)(F)F (stereo partly drawn) [Example 24, (Z)-2-(3-fluoro-1-(5-(trifluoromethyl)pyrimidin-2-yl)piperidin-4-ylidene)-N—((S)-2-((6-oxo-5-(trifluoromethyl)-1,6-dihydropyridazin-4-yl)amino)propoxy)acetamide] | – |
| < 10 | < 100 | C[C@@H](CONC(=O)C(F)C1=CCN(c2ncc(C(F)(F)F)cn2)CC1)Nc1cn[nH]c(=O)c1C(F)(F)F (stereo partly drawn) [Example 22, 2-fluoro-N—((S)-2-((6-oxo-5-(trifluoromethyl)-1,6-dihydropyridazin-4-yl)amino)propoxy)-2-(1-(5-(trifluoromethyl)pyrimidin-2-yl)-1,2,3,6-tetrahydropyridin-4-yl) acetamide] | – |
| – | – | C[C@@H](COCCC(=O)N1CCN(c2ncc(C(F)(F)F)cn2)CC1)Nc1cn[nH]c(=O)c1C(F)(F)F [RBN-2397, reference compound] | clearance ([2]; IV 3 mg/kg, read-out: CL(iv) (converted)): 68.3 mL/min/kg; bioavailability ([2]; oral bioavailability, PO 10 mg/kg vs IV 3 mg/kg): 23.9%; AUC(0-t) ([2]; IV 3 mg/kg): 732 ng·h/mL; half-life ([2]; IV 3 mg/kg): 12 min; AUC(0-t) ([2]; PO 10 mg/kg): 582 ng·h/mL; Cmax ([2]; PO 10 mg/kg): 682 ng/mL |
| < 10 | < 100 | C[C@@H](CONC(=O)CC1=CCN(c2ncc(C3CC3)cn2)CC1)Nc1cn[nH]c(=O)c1C(F)(F)F [Example 29, (S)-2-(1-(5-cyclopropylpyrimidin-2-yl)-1,2,3,6-tetrahydropyridin-4-yl)-N-(2-((6-oxo-5-(trifluoromethyl)-1,6-dihydropyridazin-4-yl)amino)propoxy)acetamide] | – |
| < 10 | 100 to 1000 | C[C@@H](/C=N/OCC(=O)N1CCN(c2ccc(C(F)(F)F)cn2)CC1)Nc1cn[nH]c(=O)c1C(F)(F)F [Example 12, (S,E)-2-((6-oxo-5-(trifluoromethyl)-1,6-dihydropyridazin-4-yl)amino)propanal O-(2-oxo-2-(4-(5-(trifluoromethyl)pyridin-2-yl)piperazin-1-yl)ethyl) oxime] | – |
| < 10 | < 100 | CC1CN(c2ncc(C3CC3)cn2)CC=C1CC(=O)NOC[C@H](C)Nc1cn[nH]c(=O)c1C(F)(F)F (stereo partly drawn) [Example 30, 2-(1-(5-cyclopropylpyrimidin-2-yl)-3-methyl-1,2,3,6-tetrahydropyridin-4-yl)-N—((S)-2-((6-oxo-5-(trifluoromethyl)-1,6-dihydropyridazin-4-yl)amino)propoxy)acetamide] | – |

Reference: US20240336596A1, “PARP7 INHIBITOR AND USE THEREOF” (NOVOSTAR PHARMACEUTICALS, LTD., priority 2022, published 2024)
